Test results published in ChEMBL document CHEMBL1201862, “PubChem BioAssay data set” (2004).
Active and inactive are the calls of the source.

Columns and labels:
[1] = target: Cytochrome P450 3A4 (Homo sapiens, UniProt P08684);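 also: CYP3A4 tested as one member of a cytochrome P450 panel screen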
[2] = test system: Escherichia coli; assay: microbe, parasite or virus in culture
[3] = target: T1, Coagulation factor XII (Homo sapiens, UniProt P00748); assay type: functional;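 also: activated factor XIIa alpha cleaving a fluorogenic AMC peptide substrate; inhibitor potency from loss of enzyme activity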
T1 sequence (P00748 whole entry): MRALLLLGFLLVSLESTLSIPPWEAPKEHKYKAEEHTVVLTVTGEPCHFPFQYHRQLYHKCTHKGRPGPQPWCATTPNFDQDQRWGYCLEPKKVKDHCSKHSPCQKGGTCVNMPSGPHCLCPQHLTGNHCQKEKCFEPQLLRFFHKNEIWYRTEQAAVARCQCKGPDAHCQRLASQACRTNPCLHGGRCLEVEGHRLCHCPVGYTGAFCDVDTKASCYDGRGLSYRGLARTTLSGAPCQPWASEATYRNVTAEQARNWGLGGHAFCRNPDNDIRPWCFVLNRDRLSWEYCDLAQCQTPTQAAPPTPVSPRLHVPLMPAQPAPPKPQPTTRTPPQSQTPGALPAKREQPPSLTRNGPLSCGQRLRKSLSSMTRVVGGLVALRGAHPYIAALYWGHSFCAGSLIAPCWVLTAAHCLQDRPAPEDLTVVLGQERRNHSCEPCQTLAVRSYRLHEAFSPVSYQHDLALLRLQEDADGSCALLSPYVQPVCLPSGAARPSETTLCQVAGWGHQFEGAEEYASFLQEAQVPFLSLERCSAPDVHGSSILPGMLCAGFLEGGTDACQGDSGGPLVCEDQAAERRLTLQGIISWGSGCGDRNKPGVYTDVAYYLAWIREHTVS

[4] = target: T2, Ubiquitin-conjugating enzyme E2 N (Homo sapiens, UniProt P61088); assay type: functional;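 also: Dose-response confirmation in a TR-FRET assay detecting UBC13-driven polyubiquitin chain formation, inhibition measured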
T2 sequence (P61088 whole entry): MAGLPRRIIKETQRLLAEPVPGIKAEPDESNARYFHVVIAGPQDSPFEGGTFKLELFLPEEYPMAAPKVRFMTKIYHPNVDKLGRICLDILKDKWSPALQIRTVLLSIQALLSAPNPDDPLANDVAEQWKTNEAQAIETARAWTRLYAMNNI

[5] = test system: BJ; assay: cytotoxicity toward BJ-TERT fibroblasts, dose response, cell-based, RAS-independent, luminescence (AID 1933); assay type: functional; conditions: Homo sapiens
[6] = cytotoxicity toward DRD oncogenic fibroblasts, dose response, cell-based, non-viral oncogenic, luminescence (AID 1934); assay type: functional; conditions: Homo sapiens
[7] = cytotoxicity in HEK-293T cells, dose response, cytotoxicity control for TCR NF-kB inhibitor project, luminescence, T-cell screen hits (AID 489026); assay type: functional, cell-based;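 also: cells exposed to compound about 14 hours before the viability readout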
[8] = test system: BJ; assay: cytotoxicity toward Ras-transformed BJeLR fibroblasts, dose response, cell-based, alamar blue fluorescence, cherrypicked samples (AID 2631); assay type: functional; conditions: Homo sapiens;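 also: confirmatory dose-response assay in RAS-dependent BJ fibroblasts engineered with TERT, LT and ST, with cytotoxicity read by fluorescence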
[9] = test system: BJ; assay: cytotoxicity toward BJ-TERT-LT-ST fibroblasts, dose response, cell-based, RAS-independent, luminescence (AID 1935); assay type: functional; conditions: Homo sapiens;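 also: BJ fibroblasts immortalized with TERT plus LT and ST oncogenes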
[10] = test system: BJ; assay: cells; assay type: functional, cell-based; conditions: Homo sapiens
[11] = target: T3, High affinity choline transporter 1 (Homo sapiens, UniProt Q9GZV3); assay: CHT inhibitors, dose response, cell-based, 5-point CRC, membrane potential dye (AID 504840); assay type: functional
T3 sequence (Q9GZV3 whole entry): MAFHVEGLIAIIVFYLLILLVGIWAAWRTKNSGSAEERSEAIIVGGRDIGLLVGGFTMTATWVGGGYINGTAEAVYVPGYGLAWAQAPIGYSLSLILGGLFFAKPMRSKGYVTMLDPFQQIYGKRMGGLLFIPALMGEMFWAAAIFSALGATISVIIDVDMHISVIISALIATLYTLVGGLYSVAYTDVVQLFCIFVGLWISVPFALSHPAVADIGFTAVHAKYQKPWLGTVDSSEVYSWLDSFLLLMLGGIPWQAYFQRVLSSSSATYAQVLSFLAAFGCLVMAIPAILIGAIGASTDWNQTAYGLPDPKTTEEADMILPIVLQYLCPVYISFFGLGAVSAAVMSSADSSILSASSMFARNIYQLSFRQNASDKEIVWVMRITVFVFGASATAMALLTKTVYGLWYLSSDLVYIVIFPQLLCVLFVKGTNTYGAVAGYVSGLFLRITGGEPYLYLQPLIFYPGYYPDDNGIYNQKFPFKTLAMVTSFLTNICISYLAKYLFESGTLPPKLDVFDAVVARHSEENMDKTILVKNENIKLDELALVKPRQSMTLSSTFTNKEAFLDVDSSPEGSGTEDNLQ

[12] = target: T4, Leucine aminopeptidase (Plasmodium falciparum 3D7, UniProt Q8IL11); assay: P. falciparum M17LAP inhibitors, primary screen, biochemical, fluorogenic H-Leu-NHMec substrate, 1536-well (AID 1619); assay type: functional
T4 sequence (Q8IL11 whole entry): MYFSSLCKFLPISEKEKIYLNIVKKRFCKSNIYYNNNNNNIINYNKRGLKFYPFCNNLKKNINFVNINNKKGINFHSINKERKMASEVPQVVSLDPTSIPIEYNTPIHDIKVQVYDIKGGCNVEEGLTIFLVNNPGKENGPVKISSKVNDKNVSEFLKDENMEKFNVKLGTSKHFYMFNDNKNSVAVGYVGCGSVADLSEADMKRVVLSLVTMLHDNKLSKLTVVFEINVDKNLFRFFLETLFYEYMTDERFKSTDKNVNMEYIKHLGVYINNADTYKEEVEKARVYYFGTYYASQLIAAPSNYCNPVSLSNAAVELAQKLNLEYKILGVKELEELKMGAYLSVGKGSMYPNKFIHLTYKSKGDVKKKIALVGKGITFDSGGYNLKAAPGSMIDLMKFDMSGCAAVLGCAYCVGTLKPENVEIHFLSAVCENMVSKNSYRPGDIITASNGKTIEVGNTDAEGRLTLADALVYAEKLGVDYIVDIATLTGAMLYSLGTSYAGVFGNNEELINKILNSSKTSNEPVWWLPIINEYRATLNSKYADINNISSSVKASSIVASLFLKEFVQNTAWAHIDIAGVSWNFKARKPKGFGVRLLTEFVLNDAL

[13] = target: T5, Alkaline phosphatase, tissue-nonspecific isozyme (Homo sapiens, UniProt P05186); assay: human TNAP enzyme inhibitors, SAR follow-up, biochemical, luminescent, dose response (AID 1056)
T5 sequence (P05186 whole entry): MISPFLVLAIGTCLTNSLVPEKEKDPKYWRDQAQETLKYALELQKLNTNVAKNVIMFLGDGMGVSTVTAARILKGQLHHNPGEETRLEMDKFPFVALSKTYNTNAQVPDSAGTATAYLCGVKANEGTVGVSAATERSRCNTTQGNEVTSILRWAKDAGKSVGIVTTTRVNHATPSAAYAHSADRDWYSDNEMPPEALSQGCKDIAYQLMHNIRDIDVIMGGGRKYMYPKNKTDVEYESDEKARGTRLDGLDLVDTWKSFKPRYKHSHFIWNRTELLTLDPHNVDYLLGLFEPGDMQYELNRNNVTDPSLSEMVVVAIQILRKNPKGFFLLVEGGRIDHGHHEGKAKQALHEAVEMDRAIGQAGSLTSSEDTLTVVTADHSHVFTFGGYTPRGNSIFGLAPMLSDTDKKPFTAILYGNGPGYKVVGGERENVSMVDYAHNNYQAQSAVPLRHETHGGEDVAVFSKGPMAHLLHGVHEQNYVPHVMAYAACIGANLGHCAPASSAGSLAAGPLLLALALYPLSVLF

[14] = target: Glyceraldehyde-3-phosphate dehydrogenase (Homo sapiens, UniProt P04406)
Sequence of Glyceraldehyde-3-phosphate dehydrogenase (P04406 whole entry): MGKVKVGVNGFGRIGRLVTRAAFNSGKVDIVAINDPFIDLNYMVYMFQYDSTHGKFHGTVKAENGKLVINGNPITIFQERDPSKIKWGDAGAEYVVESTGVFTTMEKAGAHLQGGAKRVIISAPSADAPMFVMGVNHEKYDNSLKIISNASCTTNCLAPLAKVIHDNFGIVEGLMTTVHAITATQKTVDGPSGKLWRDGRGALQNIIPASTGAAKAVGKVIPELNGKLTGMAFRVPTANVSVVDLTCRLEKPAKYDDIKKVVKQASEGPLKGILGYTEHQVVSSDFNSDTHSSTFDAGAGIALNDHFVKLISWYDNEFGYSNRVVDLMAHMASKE

[15] = target: T6, DNA repair and recombination protein RAD54-like (Homo sapiens, UniProt Q92698); assay: inhibitors of human RAD54 branch migration, confirmation, biochemical, fluorescence, cherry-picked samples, dose series (AID 651657); assay type: functional
T6 sequence (Q92698 whole entry): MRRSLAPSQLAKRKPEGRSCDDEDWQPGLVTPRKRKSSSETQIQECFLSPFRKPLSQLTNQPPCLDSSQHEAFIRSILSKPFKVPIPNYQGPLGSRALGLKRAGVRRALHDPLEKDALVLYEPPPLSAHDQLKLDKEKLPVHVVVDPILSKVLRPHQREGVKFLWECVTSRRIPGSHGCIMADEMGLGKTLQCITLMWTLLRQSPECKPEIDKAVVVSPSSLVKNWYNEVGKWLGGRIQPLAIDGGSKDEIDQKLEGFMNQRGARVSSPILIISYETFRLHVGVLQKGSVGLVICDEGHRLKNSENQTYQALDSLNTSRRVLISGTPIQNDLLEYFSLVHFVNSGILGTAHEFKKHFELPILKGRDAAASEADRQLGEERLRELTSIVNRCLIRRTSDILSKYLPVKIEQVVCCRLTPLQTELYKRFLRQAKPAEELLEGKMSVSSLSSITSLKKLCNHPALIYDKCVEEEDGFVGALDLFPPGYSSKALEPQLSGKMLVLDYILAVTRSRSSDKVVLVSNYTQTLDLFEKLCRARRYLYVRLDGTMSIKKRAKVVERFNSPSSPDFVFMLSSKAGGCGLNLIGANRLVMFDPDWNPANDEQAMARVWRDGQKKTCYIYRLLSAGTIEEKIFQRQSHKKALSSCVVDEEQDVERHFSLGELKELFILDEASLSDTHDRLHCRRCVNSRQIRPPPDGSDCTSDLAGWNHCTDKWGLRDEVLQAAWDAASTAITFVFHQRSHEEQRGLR

[16] = target: Nonstructural protein 1 (Influenza A virus, UniProt Q194T2); assay type: functional, Influenza A virus (A/California/07/2009(H1N1))
Sequence of Nonstructural protein 1 (Q194T2 whole entry): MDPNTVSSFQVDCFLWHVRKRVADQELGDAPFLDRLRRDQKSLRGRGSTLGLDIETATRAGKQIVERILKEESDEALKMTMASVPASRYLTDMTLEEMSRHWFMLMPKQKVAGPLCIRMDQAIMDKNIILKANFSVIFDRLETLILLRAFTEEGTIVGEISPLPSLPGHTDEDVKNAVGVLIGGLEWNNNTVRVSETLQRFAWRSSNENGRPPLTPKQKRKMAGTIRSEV

Sequence of Cytochrome P450 3A4 (P08684 whole entry): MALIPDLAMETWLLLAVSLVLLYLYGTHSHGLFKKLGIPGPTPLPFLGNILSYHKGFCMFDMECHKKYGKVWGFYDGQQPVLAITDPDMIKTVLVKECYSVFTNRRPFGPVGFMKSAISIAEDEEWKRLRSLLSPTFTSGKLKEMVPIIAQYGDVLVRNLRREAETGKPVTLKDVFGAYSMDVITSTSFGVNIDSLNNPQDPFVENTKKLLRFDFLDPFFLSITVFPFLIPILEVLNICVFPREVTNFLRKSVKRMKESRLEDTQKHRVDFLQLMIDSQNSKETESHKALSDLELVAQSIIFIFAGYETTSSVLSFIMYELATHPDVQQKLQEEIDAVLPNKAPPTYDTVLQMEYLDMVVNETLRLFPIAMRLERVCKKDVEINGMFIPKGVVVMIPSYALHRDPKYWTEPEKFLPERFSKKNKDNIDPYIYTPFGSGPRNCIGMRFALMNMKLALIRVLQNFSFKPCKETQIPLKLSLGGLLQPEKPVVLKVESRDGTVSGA

For `Cn1c(=O)[nH]c2ncn(C)c2c1=O` [PARAXANTHINE], the AC50 [1] was “inconclusive” and the AC50 [2] was 23.3 µM (active).

For `CC(C)/N=C/c1c(O)[nH]c2ccccc12`, the IC50 [3] was > 50 µM (inactive).

In the case of `CCc1nc2ccccc2c(C(=O)OCc2nc3ccccc3c(=O)[nH]2)c1C`, the IC50 [4] is reported as > 20 µM (inactive).

In the case of `COc1ccccc1N1CCN(C/C(O)=C(\C#N)c2nc(-c3ccccc3)cs2)CC1`, the IC50 [3] is reported as > 50 µM (inactive).

In the case of `Cc1ccc2c(c1)C1CN(C)CCC1N2C(=O)CCCN1C(=O)c2cccc3cccc(c23)C1=O` (centres undefined), the IC50 [4] is reported as > 20 µM (inactive).

With `O=C(Nc1ccc([N+](=O)[O-])cc1)Nc1ccon1` the EC50 [5] was 1.57 µM (active), the EC50 [6] was 1.21 µM (active) and the IC50 [7] was > 80 µM (inactive). For the same compound, the EC50 [8] was < 0.104 µM (active), the EC50 [9] was 4.66 µM (active) and the EC50 [10] was 12.1 µM (active).

For `O=C(O)C1CCN(c2nc(-c3ccccc3)nc3c2oc2ccccc23)CC1`, the IC50 [11] was 9.12 µM (active) and the IC50 [12] was 30.1 µM (active).

For `c1cncc(-n2cnnn2)c1`, the IC50 [13] was > 100 µM (inactive) and the IC50 [14] was > 100 µM (not active).

In the case of `C=CC(=O)Nc1ccc(N(C)c2ccnc(Nc3ccc(N4CCN(C)CC4)cc3)n2)cc1`, the AC50 [15] is reported as 21 µM (active), the IC50 [4] is reported as > 20 µM (inactive) and the IC50 [16] is reported as 25.5 µM (active).
